Measured values from patent publication US9497970B2, “Pesticide compounds” (priority 2013, dated 2016).

Experiments:
Type in all cases: in vivo
[1] = test system: Mediterranean Fruitfly (Ceratitis capitata); assay: B.6 Mediterranean Fruitfly (Ceratitis capitata), microtiter plate insect diet; details: 120 h, 800 ppm, sprayed onto insect diet, 5 days, in comparison with untreated controls, read-out: mortality (egg and larval)
Method in brief: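 Insect diet with 50-80 C. capitata eggs sprayed with compounds formulated in 75% water/25% DMSO, at different concentrations, two replications. Incubation at about 28±1° C and 80±5% relative humidity for 5 days, then egg and larval mortality assessed visually.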

[2] = test system: Boll Weevil (Anthonomus grandis); assay: B.3 Boll Weevil (Anthonomus grandis), microtiter plate insect diet; details: 120 h, 800 ppm, sprayed onto insect diet, 5 days, in comparison with untreated controls, read-out: mortality (egg and larval)
Method in brief: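 Compounds in 25% DMSO/water sprayed at several concentrations onto insect diet in microtiter wells holding 5–10 A. grandis eggs, two replicates. Plates kept 5 days at about 25±1 °C and 75±5% RH. Egg and larval mortality scored visually.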

[3] = test system: Diamond Back Moth (Plutella xylostella); assay: B.1 Diamond Back Moth (Plutella xylostella), cabbage leaf dip; details: foliar, 500 ppm, 3rd instar larvae on dipped cabbage leaves, 72 hours after treatment, in comparison with untreated controls, read-out: mortality
Method in brief: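 Cabbage leaves dipped in compound in 1:1 water:acetone with 0.01% Kinetic HV surfactant, air-dried, then infested with ten 3rd-instar larvae on moist filter paper. Mortality scored at 72 h after treatment; feeding damage rated on a 0-100% scale.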

[4] = test system: Green Peach Aphid (Myzus persicae); assay: B.9 Green Peach Aphid (Myzus persicae), sprayed bell pepper plants; details: 120 h, infested bell pepper plants sprayed, after 5 days, in comparison with untreated controls
Protocol: B.9 Green Peach Aphid (Myzus persicae)
The active compounds were formulated by a Tecan liquid handler in 100% cyclohexa none as a 10,000 ppm solution supplied in tubes. The 10,000 ppm solution was serially diluted in 100% cyclohexanone to make interim solutions. These served as stock solutions for which final dilutions were made by the Tecan in 50% acetone:50% water (v/v) into 5 or 10 ml glass vials. A nonionic surfactant (Kinetic®) was included in the solution at a volume of 0.01% (v/v). The vials were then inserted into an automated electrostatic sprayer equipped with an atomizing nozzle for application to plants/insects.
Bell pepper plants at the first true-leaf stage were infested prior to treatment by placing heavily infested leaves from the main colony on top of the treatment plants. Aphids were allowed to transfer overnight to accomplish an infestation of 30-50 aphids per plant and the host leaves were removed. The infested plants were then sprayed by an automated electrostatic plant sprayer equipped with an atomizing spray nozzle. The plants were dried in the sprayer fume hood, removed, and then maintained in a growth room under fluorescent lighting in a 24-hr photoperiod at about 25° C. and about 20-40% relative humidity. Aphid mortality on the treated plants, relative to mortality on untreated control plants, was determined after 5 days.

[5] = test system: Tobacco Budworm (Heliothis virescens); assay: B.7 Tobacco Budworm (Heliothis virescens) I, microtiter plate insect diet; details: 120 h, 800 ppm, sprayed onto insect diet, 5 days, in comparison with untreated controls, read-out: mortality (egg and larval)
Method in brief: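 96-well plates with insect diet and 15-25 H. virescens eggs; compounds in 75% water/25% DMSO sprayed onto diet at several concentrations, two replicates. Plates held at about 28±1° C. and 80±5% relative humidity for 5 days, then egg and larval mortality scored visually.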

[6] = test system: Yellow Fever Mosquito (Aedes aegypti); assay: whole plant or invertebrate; details: 48 h, freshly hatched larvae in tap water, 2 days, in comparison with untreated controls, read-out: mortality (larval)
Protocol: B.11 Yellow Fever Mosquito (Aedes aegypti)
For evaluating control of yellow fever mosquito (Aedes aegypti) the test unit consisted of 96-well-microtiter plates containing 200 μl of tap water per well and 5-15 freshly hatched A. aegypti larvae.
The active compounds were formulated using a solution containing 75% (v/v) water and 25% (v/v) DMSO. Different concentrations of formulated compounds or mixtures were sprayed onto the insect diet at 2.5 μl, using a custom built micro atomizer, at two replications.

[7] = test system: Southern Armyworm (Spodoptera eridania), 2nd Instar Larvae; assay: B.10 Southern Armyworm (Spodoptera eridania), 2nd Instar Larvae, sprayed lima bean plants; details: 96 h, 300 ppm, larvae on sprayed lima bean plants, 4 days after treatment, in comparison with untreated controls, read-out: mortality
Protocol: B.10 Southern Armyworm (Spodoptera eridania), 2nd Instar Larvae
The active compounds were formulated by a Tecan liquid handler in 100% cyclohexanone as a 10,000 ppm solution supplied in tubes. The 10,000 ppm solution was serially diluted in 100% cyclohexanone to make interim solutions. These served as stock solutions for which final dilutions were made by the Tecan in 50% acetone:50% water (v/v) into 5 or 10 ml glass vials. A nonionic surfactant (Kinetic®) was included in the solution at a volume of 0.01% (v/v). The vials were then inserted into an automated electrostatic sprayer equipped with an atomizing nozzle for application to plants/insects.
Lima bean plants (variety Sieva) were grown 2 plants to a pot and selected for treatment at the 1st true leaf stage. Test solutions were sprayed onto the foliage by an automated electrostatic plant sprayer equipped with an atomizing spray nozzle. The plants were dried in the sprayer fume hood and then removed from the sprayer. Each pot was placed into perforated plastic bags with a zip closure. About 10 to 11 armyworm larvae were placed into the bag and the bags zipped closed. Test plants were maintained in a growth room at about 25° C. and about 20-40% relative humidity for 4 days, avoiding direct exposure to fluorescent light (24 hour photoperiod) to prevent trapping of heat inside the bags. Mortality and reduced feeding were assessed 4 days after treatment, compared to untreated control plants.

[8] = test system: Orchid thrips (dichromothrips corbetti); assay: B.12 Orchid thrips (dichromothrips corbetti), floral-immersion technique; details: adult thrips on dipped orchid petals, 72 hours after treatment, in comparison with untreated controls
Protocol: B.12 Orchid thrips (dichromothrips corbetti)
Dichromothrips corbetti adults used for bioassay were obtained from a colony maintained continuously under laboratory conditions. For testing purposes, the test compound is diluted in a 1:1 mixture of acetone:water (vol:vol), plus Kinetic HV at a rate of 0.01% v/v.
Thrips potency of each compound was evaluated by using a floral-immersion technique. All petals of individual, intact orchid flowers were dipped into treatment solution and allowed to dry in Petri dishes. Treated petals were placed into individual resealable plastic along with about 20 adult thrips. All test arenas were held under continuous light and a temperature of about 28° C. for duration of the assay. After 3 days, the numbers of live thrips were counted on each petal. The percent mortality was recorded 72 hours after treatment.

Cc1ccc(NC(=S)N/N=C/c2ccc3c(ccc4c3ncn4-c3ccc(OC(F)(F)F)cc3)c2)c(C)c1 [C-2, 1-(2,4-dimethylphenyl)-3-[(E)-[3-[4-(trifluoromethoxy)phenyl]benzo[e]benzimidazol-7-yl]methyleneamino] thiourea]
≥ 75%: mortality at 800 ppm [1] | mortality at 800 ppm [2] | mortality at 500 ppm [3] | mortality at 800 ppm [4] | mortality at 800 ppm [5]

CCc1ccccc1NC(=S)N/N=C/c1ccc2c(ccc3c2ncn3-c2ccc(OC(F)(F)F)cc2)c1 [C-22, 3-(2-ethylphenyl)-1-[[3-[4-(trifluoromethoxy)phenyl]-9aH-benzo[e]benzimidazol-7-ylidene]methylimino] isothiourea]
≥ 75%: mortality at 800 ppm [6] | mortality at 800 ppm [1] | mortality at 300 ppm [7] | mortality at 800 ppm [2] | mortality at 500 ppm [8] | mortality at 500 ppm [3] | mortality at 800 ppm [5]

Cc1ccccc1NC(=S)N/N=C/c1ccc2c(ccc3c2ncn3-c2ccc(OC(F)(F)F)cc2)c1 [C-23, 3-(o-tolyl)-1-[[3-[4-(trifluoromethoxy)phenyl]-9aH-benzo[e]benzimidazol-7-ylidene]methylimino]isothiourea]
≥ 75%: mortality at 800 ppm [1] | mortality at 300 ppm [7] | mortality at 800 ppm [2] | mortality at 500 ppm [8] | mortality at 500 ppm [3] | mortality at 800 ppm [5]

O=[N+]([O-])c1ccccc1NC(=S)N/N=C/c1ccc2c(ccc3c2ncn3-c2ccc(OC(F)(F)F)cc2)c1 [C-31, 3-(2-nitrophenyl)-1-[[3-[4-(trifluoromethoxy)phenyl]-9aH-benzo[e]benzimidazol-7-ylidene]methylimino] isothiourea]
≥ 75%: mortality at 800 ppm [2] | mortality at 800 ppm [4] | mortality at 800 ppm [5]

FC(F)(F)Oc1ccc(-n2nnc3c4ccc(/C=N/NC(=S)Nc5c(Cl)cccc5Cl)cc4ccc32)cc1 [C-57, 1-(2,6-dichlorophenyl)-3-[(E)-[3-[4-(trifluoromethoxy)phenyl]benzo[e]benzotriazol-7-yl]methyleneamino] thiourea]
≥ 75%: mortality at 800 ppm [4]

CCc1cccnc1NC(=S)N/N=C/c1ccc2c(ccc3c2ncn3-c2ccc(OC(F)(F)F)cc2)c1 [C-68, 1-(3-ethyl-2-pyridyl)-3-[(E)-[3-[4-(trifluoromethoxy)phenyl]benzo[e]benzimidazol-7-yl]methyleneamino] thiourea]
≥ 75%: mortality at 800 ppm [1] | mortality at 300 ppm [7] | mortality at 800 ppm [2] | mortality at 500 ppm [3]

Fc1cccc(F)c1NC(=S)N/N=C/c1ccc2c(ccc3c2ncn3-c2ccc(OC(F)(F)F)cc2)c1 [C-71, 1-(2,6-difluorophenyl)-3-[(E)-[3-[4-(trifluoromethoxy)phenyl]benzo[e]benzimidazol-7-yl]methyleneamino] thiourea]
≥ 75%: mortality at 800 ppm [1] | mortality at 300 ppm [7] | mortality at 800 ppm [2] | mortality at 800 ppm [5]

Cc1cccc(C)c1NC(=S)N/N=C/c1ccc2c(ccc3c(-c4ccc(OC(F)(F)F)cc4)onc32)c1 [C-84, 1-(2,6-dimethylphenyl)-3-[(E)-[3-[4-(trifluoromethoxy)phenyl]benzo[g][2,1]benzoxazol-7-yl]methyleneamino] thiourea]
≥ 75%: mortality at 800 ppm [1] | mortality at 800 ppm [4] | mortality at 800 ppm [5]

Cc1cccc(C)c1NC(=S)N(C)/N=C/c1ccc2c(ccc3c2ncn3-c2ccc(OC(F)(F)F)cc2)c1 [C-85, 3-(2,6-dimethylphenyl)-1-methyl-1-[(E)-[3-[4-(trifluoromethoxy)phenyl]benzo [e]benzimidazol-7-yl]methyleneamino] thiourea]
≥ 75%: mortality at 800 ppm [6] | mortality at 800 ppm [1] | mortality at 300 ppm [7] | mortality at 800 ppm [2] | mortality at 500 ppm [8] | mortality at 500 ppm [3] | mortality at 800 ppm [5]

Cc1cccc([S+](C)[O-])c1NC(=S)N/N=C/c1ccc2c(ccc3c2ncn3-c2ccc(OC(F)(F)F)cc2)c1 (centres unmarked) [C-104, 1-(2-methyl-6-methylsulfinyl-phenyl)-3-[(E)-[3-[4-(trifluoromethoxy)phenyl]benzo[e]benzimidazol-7-yl]methyleneamino]thiourea]
≥ 75%: mortality at 800 ppm [6] | mortality at 800 ppm [1] | mortality at 300 ppm [7] | mortality at 800 ppm [2] | mortality at 500 ppm [8] | mortality at 500 ppm [3] | mortality at 800 ppm [5]

Cc1cccc(C)c1NC(=S)N/N=C/c1ccc2c(ccc3c2ncn3-c2ccc(Cl)cc2)c1 [C-106, 1-[(E)-[3-(4-chlorophenyl)benzo[e]benzimidazol-7-yl]methyleneamino]-3-(2,6-dimethylphenyl)thiourea]
≥ 75%: mortality at 800 ppm [6] | mortality at 800 ppm [1] | mortality at 300 ppm [7] | mortality at 800 ppm [2] | mortality at 800 ppm [5]

Cc1cccc(C)c1NC(=S)N/N=C/c1ccc2c(c1)CCc1c-2nn(C)c1-c1ccc(OC(F)(F)F)cc1 [C-107, 1-(2,6-dimethylphenyl)-3-[(E)-[2-methyl-3-[4-(trifluoromethoxy)phenyl]-4,5-dihydrobenzo[g]indazol-7-yl]methyleneamino]thiourea]
≥ 75%: mortality at 800 ppm [6] | mortality at 800 ppm [1] | mortality at 300 ppm [7] | mortality at 800 ppm [2] | mortality at 500 ppm [8] | mortality at 500 ppm [3] | mortality at 800 ppm [5]
